Reference: patent publication US20180077928A1, “INSECT REPELLENT FIBER AND INSECT REPELLENT SCREEN USING SAME” (priority 2015, published 2018)

Key:
[1] = human, over a lifetime without appreciable health risk; WHO and FAO; cited from earlier work
[2] = Acceptable Daily Intake (ADI) set by WHO and FAO; acceptable intake used in evaluation criteria; set-up: species or system human; details: person/child who weighs 15 kg, calculated from ADI
Experimental: When the amount of the insect repellent 4 (permethrin) exposed to the surface of the insect repellent fiber 1 is less than 0.4 μg per gram of the insect repellent fiber 1, the insect repellent effect cannot be sufficiently exerted. […] The WHO and FAO (Food and Agriculture Organization of the United Nations) have investigated harmful effects of permethrin to a human body on the basis of a large amount of data obtained by animal tests and the like. According to the investigation results, the amount of permethrin that can be ingested by human over a lifetime without an appreciable health risk, or also referred to as ADI (Acceptable Daily Intake), is set to “0.05 mg/day/kg”. For example, for people who weigh 15 kg (weight of around a child), this value per day is calculated to be 0.75 mg. This means that permethrin of such an amount may be continually ingested without an appreciable health risk. […]
The safety was evaluated according to the following evaluation criteria by assuming a situation that a child who weighs 15 kg licked a whole area of a screen door in which the insect repellent screen having an area of 1 m^2 was installed. […] It is noted that when the insert repellent screen was evaluated as “good”, the insect repellent screen was determined to be safe.

## CC1(C)C(C=C(Cl)Cl)C1C(=O)OCc1cccc(Oc2ccccc2)c1 (stereo not drawn) [permethrin]
[1]
  ADI (Acceptable Daily Intake): 0.05 mg/day/kg
[2]
  acceptable intake per day: 0.75 mg

## CCOc1ccc(C(C)(C)COCc2cccc(Oc3ccccc3)c2)cc1 [ethofenprox]
[2]
  acceptable intake per day: 0.45 mg
